Experiment: wn = mass fraction of the nth substance listed
Conditions: Liquid, Buoyancy - hydrostatic balance

c1ccccc1 [benzene] + CO
mass density [kg/m3]
Conditions | 100 kPa | 5000 kPa | 9900 kPa | 19700 kPa | 29500 kPa | 39300 kPa | 49100 kPa | 58900 kPa
287.65 K, w2 = 0.5 | 840.5 | 844.4 | 847.9 | 855.8 | 863 | 869.5 | 875.2 | 881
291.15 K, w2 = 0.25 | 857.7 | 862 | 866.1 | 873.8 | 880.6 | 887.3 | 893.2 | 899.1
292.65 K, w2 = 0.75 | 815.2 | 819.9 | 824.2 | 832.1 | 839.2 | 846.4 | 852.5 | 858.7
297.35 K, w2 = 0.5 | 830.9 | 835.6 | 839.9 | 847.7 | 855 | 862.1 | 868 | 874
313.66 K, w2 = 0.25 | 835 | 840.1 | 844.8 | 852.9 | 860.8 | 868.4 | 875.1 | 881
314.15 K, w2 = 0.75 | 795.6 | 800.3 | 804.7 | 813 | 821.1 | 828.8 | 835.9 | –
322.15 K, w2 = 0.5 | 806.5 | 811.8 | 817 | 825.3 | 833.4 | 841.4 | 848.2 | 855.1
337.37 K, w2 = 0.25 | – | 816.2 | 822.1 | 831 | 840 | 848.3 | 856 | 862.7
338.35 K, w2 = 0.75 | – | 776.6 | 781.6 | 791 | 800.2 | 809 | 817.1 | 823.9
341.35 K, w2 = 0.5 | – | 791.4 | 797.7 | 807.3 | 816.2 | 825.1 | 832.9 | 840
356.15 K, w2 = 0.5 | – | 775.2 | 781.8 | 792 | 802.8 | 811.7 | 819.8 | 827.6
361.64 K, w2 = 0.25 | – | 789.2 | 796.5 | 806.8 | 817.1 | 826.9 | 835 | 842.7
361.65 K, w2 = 0.75 | – | 750.9 | 757 | 767.9 | 778.4 | 788.1 | 797 | 804.9
376.65 K, w2 = 0.5 | – | 750.9 | 758.2 | 770.8 | 784 | 793.2 | 801.8 | –
383.15 K, w2 = 0.75 | – | 724.9 | 732.5 | 745 | 757.4 | 768.2 | 777.8 | 786.9
383.16 K, w2 = 0.25 | – | 764.1 | 772.6 | 784.4 | 796.3 | 807.6 | 815.9 | 824.8
402.15 K, w2 = 0.5 | – | 718.4 | 726.6 | 742.7 | 757.7 | 769 | 778.9 | 788.6
406.65 K, w2 = 0.75 | – | 693.4 | 703.3 | 718.9 | 733.3 | 745 | 755.9 | 766.2
407.66 K, w2 = 0.25 | – | 732 | 741.5 | 757.6 | 771.3 | 784.6 | 793.3 | 803.2
428.15 K, w2 = 0.5 | – | 678.8 | 689.5 | 710.6 | 728.7 | 742.1 | 753.2 | 764.7
429.26 K, w2 = 0.25 | – | 699.7 | 710.6 | 731.1 | 748.2 | 762.9 | 773 | 783.8
431.35 K, w2 = 0.75 | – | 656.6 | 667.9 | 689.5 | 706.7 | 720 | 732.5 | 744.1
453.2 K, w2 = 0.25 | – | 659.6 | 673.3 | 699.7 | 720.8 | 736.9 | 748.8 | 760.9
453.65 K, w2 = 0.5 | – | 634 | 649.1 | 676.5 | 697.6 | 714 | 727 | 739.3
458.5 K, w2 = 0.75 | – | 605.4 | 624.7 | 653.6 | 674.8 | 690.2 | 705 | 718.3
475.26 K, w2 = 0.25 | – | 616.4 | 639.6 | 669.8 | 694.3 | 710.8 | 725.7 | 739.4
477.35 K, w2 = 0.75 | – | 558.2 | 590.9 | 628.5 | 652.3 | 669.8 | 686.2 | 699.9
496.65 K, w2 = 0.75 | – | 483.6 | 549.1 | 601.8 | 628.5 | 647.8 | 665.6 | 680.8
497.15 K, w2 = 0.5 | – | 520.7 | 570 | 617.6 | 643.1 | 661.9 | 680.8 | 694.6
497.17 K, w2 = 0.25 | – | 566.6 | 598.9 | 639 | 664.5 | 684.2 | 701.6 | 717

CCc1ccccc1 [ethylbenzene] + CO
mass density [kg/m3]
Conditions | 100 kPa | 5000 kPa | 9900 kPa | 19700 kPa | 29700 kPa | 39300 kPa | 49100 kPa | 58900 kPa
292.05 K, w2 = 0.5 | 830.6 | 834.1 | 838.5 | 845.6 | 852.2 | 858.6 | 864.4 | 871.2
292.4 K, w2 = 0.75 | 813.3 | 817.6 | 822.1 | 827.7 | 836.5 | 843 | 848.8 | 855.8
292.65 K, w2 = 0.25 | 848 | 851.5 | 855.3 | 862.7 | 868.8 | 874.8 | 880.7 | 886.8
314.55 K, w2 = 0.5 | 810.8 | 815.2 | 819.6 | 827.8 | 835.2 | 842 | 848.6 | 854.4
314.65 K, w2 = 0.25 | 828.6 | 833.1 | 837.2 | 845.1 | 852 | 859 | 869.3 | 871.5
317.6 K, w2 = 0.75 | 795.3 | 799.8 | 804 | 810.8 | 820.2 | 827.4 | – | 840.4
335.35 K, w2 = 0.75 | – | 778.8 | 783 | 790.7 | 801.3 | 809.4 | 816.4 | 823.5
335.45 K, w2 = 0.25 | – | 815 | 819.5 | 828.3 | 836.8 | 844.1 | 850.4 | 856.4
337.65 K, w2 = 0.5 | – | 794.3 | 799.5 | 808.3 | 816.7 | 824.4 | 831.7 | 837.8
358.8 K, w2 = 0.75 | – | 754.4 | 759.7 | 768.5 | 780.5 | 789.6 | 797.4 | 805.5
359.95 K, w2 = 0.25 | – | 790.3 | 796.2 | 807.6 | 817.7 | 825.5 | 831.8 | 838
360.45 K, w2 = 0.5 | – | 771.3 | 778.5 | 788.1 | 797.9 | 806.5 | 814.1 | 820.5
384.05 K, w2 = 0.75 | – | 725.4 | 732.8 | 743 | 757.2 | 767.3 | 776.2 | 785.4
384.45 K, w2 = 0.5 | – | 744 | 754.8 | 766.4 | 777.5 | 786.6 | 797.7 | 801.6
385.75 K, w2 = 0.25 | – | 763.2 | 770.7 | 785.7 | 797.4 | 806 | 813 | 819.7
407.15 K, w2 = 0.25 | – | 739 | 748.1 | 765 | 778.9 | – | 796.4 | 804.1
408.15 K, w2 = 0.5 | – | 713.2 | 729.5 | 742.4 | 754.8 | 765.3 | 774.1 | 783
410.05 K, w2 = 0.75 | – | 691 | 701 | 714.3 | 731.6 | 742.6 | 753.1 | 763
433.5 K, w2 = 0.25 | – | 707.9 | 719.4 | 739 | 755.8 | 767 | 775 | 784.4
434.15 K, w2 = 0.5 | – | 677.4 | 695.9 | 712.8 | 728.6 | 741.1 | 751.2 | 761.4
434.35 K, w2 = 0.75 | – | 654.7 | 668.2 | 686 | 706.5 | 719 | 730.7 | 742.3
459.55 K, w2 = 0.75 | – | 608.3 | 628.7 | 651.4 | 677.4 | 692.5 | 706.4 | 719.5
460.25 K, w2 = 0.5 | – | 634.7 | 653.7 | 677.5 | 697.7 | 713.4 | 726.4 | 738.3
460.45 K, w2 = 0.25 | – | 668.7 | 683.4 | 708.2 | 727.1 | 740.5 | 751.2 | 761.5
489.65 K, w2 = 0.75 | – | 527.2 | 571 | 607 | 640.3 | 659.7 | 677.3 | 692.8
491.15 K, w2 = 0.5 | – | 554 | 594.2 | 633.2 | 656.5 | – | 693 | 708.6
497.95 K, w2 = 0.25 | – | 623 | 640.4 | 671 | 693.7 | 710.4 | 724.5 | 736

Reference: the NIST ThermoML archive (doi:10.1016/j.jct.2005.03.006)
